{"source": "patent US8858952B2", "about": "“Methods and materials for generating T cells” (Mayo Foundation for Medical Education and Research, priority 2009, dated 2014)", "molecules": {"B1": {"name": "IFN-γ: cytokine included in T cell culture (protein, UniProt P01579 24-161, looked up)", "Interferon gamma": "QDPYVKEAENLKKYFNAGHSDVADNGTLFLGILKNWKEESDRKIMQSQIVSFYFKLFKNFKDDQSIQKSVETIKEDMNVKFFNSNKKKRDDFEKLTNYSVTDLNVQRKAIHELIQVMAELSPAAKTGKRKRSQMLFRG"}}, "key": {"[1]": {"experiment": "Immunogenicity of FR74 used as a vaccine with adjuvant", "type": "in vivo", "details": "with complete Freund's adjuvant (CFA), CpG, or GM-CSF", "source_text": "A native helper epitope designated FR74 was a peptide derived from the folate receptor alpha (FRα) (FIG. 2). FRα (also referred to as folate binding protein) is a glycophosphatidyl-anchored membrane glycoprotein that mediates cellular uptake of folate. This polypeptide is over-expressed on many cancers at levels of up to 80-90-fold relative to the levels observed on normal tissues. FRα is an antigen that can be used across strains, which allows one to test various strategies amongst many different I-A and I-E backgrounds. […] FR74 was modified at the amino-terminus end with an Ii-key and at the carboxy terminus with a DC3 amino acid motif (FIG. 2). To reduce enzymatic degradation in cell culture, the amino terminus of FR74 was acetylated to make FR74.1. FR74.2 is FR74 conjugated to Ii-key. It is attached with a flexible, noncleavable linker FR74.3 is FR74 conjugated to a DC3 polypeptide using a furin sensitive linker to permit cleavage. Furin is an endopeptidase that normally proteolytically activates a large number of proproteins in the cell, and it is predominantly localized to the […] (Thomas, G., Nat. Rev. Mol. Cell Biol., 3(10):753-66 (2002)). FR74.4 is a dual conjugated polypeptide. All modified peptides were acetylated at the amino terminus to prevent degradation."}, "FR74-specific T cells": {"test_system": "FR74-specific T cells", "experiment": "IFN-γ ELIspot of T cell cultures generated ex vivo with polypeptide-pulsed DC", "type": "cell-based, FVB/N mice", "description": "FIG. 4 is a graph plotting the results an IFN-γ ELIspot analyses of T cell cultures incubated with the indicated polypeptides. Epitope nesting greatly augments the numbers of antigen-specific T cells. T cells were tested in ELIspot against native FR74 polypeptide at various concentrations. Each data point is the mean of 3 determinations.\nFIG. 6. FR74-specific T cells generated with modified polypeptides recognized tumor lysates. […] Each bar is the mean (±s.e.m.) of 3 replicates.\nFIG. 7. […] The T cells were generated at varying concentrations of polypeptides (x-axis). Each point is the mean (±s.e.m.) of 3 replicates.\nIn terms of proliferation, only the dual modified polypeptide was able to generate T cells that were able to proliferate at 10^−9 g/mL (FIG. 5).\nIn order to determine whether furin cleavage is required, two methods are used: furin insensitive linkers and furin inhibitors. Blockade of enhanced ex vivo expansion mediated by the DC3 peptide using these two methods is powerful evidence, outside of a furin knockout mouse, that furin is required for the actions of DC3. Although it has already been shown that DC3 must be linked to antigen, as a control T cells are expanded using free FR74 mixed with free DC3. To test the role of furin with furin-insensitive linkers, RARR (SEQ ID NO:4) is replaced with VRVV (SEQ ID NO:41) with the polypeptides FR74.1, FR74.3, and FR74.8 as shown in FIG. 17. In parallel with these cultures, cultures are included in which inhibitors are included. The stoichiometric peptidyl inhibitor decanoyl-Arg-Val-Lys-Arg-CH2CL (SEQ ID NO:42) and α1-antitrypsin Portland, which are the two most commonly used inhibitors, are employed. […] Cultures are examined over a range of concentrations of inhibitors and assayed as described with ELIspot and proliferation assays. To generate Th cells, CD4^+ T cells are purified by incubation of splenocytes with anti-CD4^+ MACS microbeads (Miltenyi, Auburn, Calif.) for 20 minutes at 4° C., followed by positive selection of CD4^+ T cells using an AutoMACS automatic magnetic cell sorter according to the manufacturer's specifications. Th cell lines are established with bone marrow derived DC at a concentration of 5×10^4 T cells/mL in 24-well tissue culture-treated plates in complete medium on day 0. To derive the dendritic cells (DCs), bone marrow is harvested from the long bones of FVB/N mice and seeded in 6-well plates (3×10^6/well) in complete media with murine GM-CSF (10 ng/mL) and IL-4 (1 ng/mL). Media and cytokines are replaced after 3 days. On day 5, CPG is added to the cultures at 1 μg/mL, and the cells are ready for T cell induction on day 6. The tissue culture-generated DC are pulsed with 10 μg/mL FR74 peptide or its modifications and 10 μg/mL B7DC-crosslinking antibody at 37° C. for 4 hours. In these experiments, constant mass is maintained. Next, the peptide-loaded DC are washed with media, and the CD4+ T cells are added, and on days 8 and 10, IL-2 (50 U/mL) is added. On day 15, cells are assayed. For the ELIspot analysis, anti-IFN-γ (Pharmingen) antibody is added to a 96-well nitrocellulose-backed plate (NC-plate, Millipore) at 50 μL/well at a concentration of 10 μg/mL in PBS and incubated overnight at 4° C. The day of analysis, the NC-plate is washed with PBS and blocked for 1-2 hours at 37° C. with PBS/2%BSA. After blocking, the plate are again washed. The Th cells are transferred to the antibody-coated plates. Syngeneic naïve CD4 T cells alone without peptide antigen are used as the negative control. Th cells are seeded at 5×10^4 cells/well with a range of native (i.e., FR74) peptide, irrelevant peptide, FRαMMC tumor lysate, irrelevant tumor lysate, media or concanavalin A. Irradiated syngeneic splenocytes are added at 1 ×10^5 cells/well as antigen-presenting cells. The plate is incubated at 37° C. for 24 hours. The plate are washed with PBS/0.05% Tween-20, and 100 μL/well biotinylated anti-IFN-γ(5 μg/mL, Pharmingen) antibody are added to each well. […]"}, "CD4 T cells": {"test_system": "CD4 T cells", "experiment": "Proliferation assay of CD4 and CD8 T cells from FR74-immunized mice", "type": "cell-based", "details": "but not CD8 T cells, from FR74-immunized FVB mice, FIG. 3A", "description": "FIG. 3A is a plotting the stimulation indices from a proliferation assay in which CD4 and CD8 T cells from FR74-immunized mice were tested for response to non-specific stimulation (PHA), FR74 polypeptide, or an irrelevant polypeptide (Irrel pep). The stimulation index is the ratio of the thymidine incorporation in the sample with antigen and the controls ample. FIG. 3B is a graph plotting results of an IFN-γELlspot (enzyme-linked immunosorbent spot) analysis of FR74-specific T cell lines stimulated in vitro with dendritic cells (DC) pulsed with either FR74 polypeptide, FRα-overexpressing tumor cell lysate (MMC lysate), or an irrelevant polypeptide antigen (Irrel pep). Each bar is the mean (±s.e.m.) of 3 replicates.\nThe FR74 polypeptide can activate CD4 T cells in FVB and B6 mice, and it is naturally processed."}, "furin": {"target": "furin (Homo sapiens, UniProt P09958)", "sequence (P09958 108-794, species assumed)": "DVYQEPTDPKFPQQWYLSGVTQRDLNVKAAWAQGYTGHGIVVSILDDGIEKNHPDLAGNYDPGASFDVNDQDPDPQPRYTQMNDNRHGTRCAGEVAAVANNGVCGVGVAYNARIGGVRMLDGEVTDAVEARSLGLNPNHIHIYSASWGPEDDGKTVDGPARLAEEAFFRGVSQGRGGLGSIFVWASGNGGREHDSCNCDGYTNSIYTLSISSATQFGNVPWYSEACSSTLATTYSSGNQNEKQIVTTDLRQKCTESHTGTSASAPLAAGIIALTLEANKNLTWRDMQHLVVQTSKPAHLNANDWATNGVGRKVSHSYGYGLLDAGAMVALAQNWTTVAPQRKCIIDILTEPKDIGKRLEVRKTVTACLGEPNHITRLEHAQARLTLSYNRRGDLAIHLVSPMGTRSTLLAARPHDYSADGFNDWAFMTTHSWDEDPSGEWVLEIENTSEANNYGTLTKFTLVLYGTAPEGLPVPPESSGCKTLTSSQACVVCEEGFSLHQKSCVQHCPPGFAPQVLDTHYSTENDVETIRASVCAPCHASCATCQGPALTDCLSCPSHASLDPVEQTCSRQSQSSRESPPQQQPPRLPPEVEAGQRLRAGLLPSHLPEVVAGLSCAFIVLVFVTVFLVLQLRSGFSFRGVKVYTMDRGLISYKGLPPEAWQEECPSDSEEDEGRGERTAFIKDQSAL", "details": "cited from earlier work"}, "Th cells": {"test_system": "Th cells", "experiment": "Cytokine secretion and Th subsets of T cell cultures under varied culture conditions", "type": "cell-based", "description": "FIG. 19. […] Cytokines were measured following stimulation of cells with splenocytes pulsed with either no antigen (open bars) or native FR74 polypeptide. To avoid contamination of cell culture supernatants with splenocyte-derived cytokines, the T cells were purified from the splenocytes prior to incubation to measure cytokines Each bar is the mean (±s.e.m.) of duplicate samples. Results are representative of 2 experiments.\nFIG. 20. Manipulation of culture conditions can reduce levels of IL-5 and IL-10 secreting Th cells. Shown are the concentrations of IL-5 and IL-10 within T-cell culture media following simulation of Th cells with or without peptide antigen. Each bar is the mean (±s.e.m.) of duplicate samples.\nFIG. 25. Manipulation of culture conditions can reduce levels of IL-5 secreting T cells. Shown are the concentrations of IL-5 within T cell culture media following stimulation of Th cells with or without polypeptide antigen. Each bar is the mean (±s.e.m.) of duplicate samples.\nFIG. 26. […] Shown are the concentrations of IL-17 within T cell culture media following simulations of Th cells with or without polypeptide antigen. Each bar is the mean (±s.e.m.) of duplicate samples.\nAnother item is that Th subset skewing may occur which could cloud interpretations of the polypeptide modifications. […]"}}, "data": [{"molecule": "KDISYLYRFNWNHCG [FR74]", "values": [{"measurement": "immunogenicity as a vaccine", "setting": "[1]", "value": "highly immunogenic"}, {"measurement": "recognition of FRα+ tumor lysates (MMC) pulsed onto DC by FR74-specific T cell lines", "setting": "FR74-specific T cells; IFN-γ ELIspot, FIG. 3B", "value": "recognize FRα^+ tumor lysates"}, {"measurement": "immunogenicity when used to generate T cell lines", "setting": "FR74-specific T cells; using activated DC", "value": "relatively non-immunogenic"}, {"measurement": "proliferation in response to the FR74 polypeptide (stimulation index)", "setting": "CD4 T cells", "value": "increased proliferation"}]}, {"molecule": "decanoyl-Arg-Val-Lys-Arg-CH2CL", "values": [{"measurement": "selectivity for furin", "setting": "furin", "value": "not selective"}]}, {"molecule": "α1-antitrypsin", "values": [{"measurement": "selectivity for furin", "setting": "furin", "value": "highly selective for furin"}, {"measurement": "Ki", "setting": "furin; furin", "value": 0.6, "unit": "nM"}]}, {"molecule": "B1", "values": [{"measurement": "generation of IL-17-secreting Th cells", "setting": "Th cells; FIG. 26", "value": "blocks generation of IL-17-secreting Th cells"}, {"measurement": "Th2 effectors (IL-5) in FR74.4 cultures", "setting": "Th cells; cells incubated with FR74.4 with DC and IL-2, FIG. 25", "value": "completely blocked"}]}]}
